The structures appear in SMILES notation.

Data on 1 molecule can be found in US10807958B2, “1,4-bis(3-aminopropyl)piperazine derivative and its use” (INSERM (Institut National de la Sante et de la Recherche …, priority 2015, dated 2020).

Assay [1] deals with Tau proteins of Thy-Tau22 animals (hippocampus). The assay can be described thus: 1D SDS-PAGE and Western-blot of Tau expression, catabolites and phosphorylation in hippocampus. In kind it is in vivo, mouse. As to conditions: treated vs untreated, FIG. 6. From the text:
Wild-type C57BL/6J animals of 3 months were purchased at Charles Rivers Laboratories (France) and were allow to acclimate in the animal facility for at least one week before any treatment. Thy-Tau22 transgenic colonies (C57BL/6J genetic background) were obtained by crossing heterozygous Thy-Tau22 males with C57BL/6 WT females. […] In this model, a progressive development of NFT is observed in the hippocampus and amygdala, which parallels behavioral impairments (Schindowski et al., 2006). Furthermorever, in the hippocampus, hyper- and abnormally phosphorylated Tau species accumulate within the somato-dendritic area (Schindowski et al., 2006).
For animal treatment, animals were randomly distributed and the compound of Formula I was given in the drinking water at final concentration of 0.5 or 1 mg/kg. Drinking bottles were changed once per week, volume consumption was measured along the treatment period. Food consumption and body weight were assessed. In wild-type animals the pilot study of drug treatment was performed for one month to establish the innocuousness of the treatment with the compound of Formula I. This was based on the physiological, social and behavioural assessments. Thy-Tau22 males were treated for 4 months starting at 3 month old. All protocols were approved by the local ethics committee (n^∘342012, CEEA).
After behavioral assessment, blood was collected in 1.5 mL polypropylene tubes (Eppendorf, France), mice were sacrificed by cervical dislocation to avoid any modifications instrumental to anesthesia (Lefreche et al. 2012). Hippocampi and cortices were dissected and snap frozen in 1.5 mL tubes (Eppendorf). Tissue was homogenized in Tris-HCl buffer (10 mM pH 7.4) containing 320 mM sucrose, protease inhibitors (Complete mini EDTA-free, Roche) sonicated and spun at 12,000×g for 10 min at 4° C. The supernatant was recovered, protein concentration was achieved using the BCA Protein quantification assay kit (Pierce) according to the manufacturer instruction. The supernatant was further processed for biochemical analyses or kept at −80° C. For 1D or 2D gels, the same lysis buffer was used. Thus, equal amount protein in Tris buffer were added with a solution containing 7M urea, 2M thiourée with 2% SDS and sonicated at 60 Hz 30 pulses.
For the western-blot analysis of Tau proteins, SDS-PAGE was performed according to the manufacturer's instructions using Bis-Tris 4-12% gradient acrylamide gel (NuPage® Bis-Tris PreCast 12 wells, Life Technologies). The apparent molecular weights were calibrated using the molecular weight markers (Novex and Magic Marks, Life Technologies). Electrophoresis was performed under a continuous tension of 100V/per gel for 1 h. Proteins were reversibly stained with Ponceau Red to check the quality of the efficacy of protein transfer. For western-blotting, the membranes were blocked in 25 mM Tris-HCl pH 8.0, 150 mM NaCl, 0.1% Tween-20 (v/v) (TBS-T) and 5% (w/v) of skimmed milk (TBS-M) for 30 min and they were incubated overnight at 4° C. the primary antibody. The nitrocellulose membrane is rinsed three times by gentle shaking in TBS-T during 10 min each. […]
Brain proteins (of hippocampus) from untreated and Compound I⋅HCl treated thy-tau22 animals were resolved by 1D SDS-PAGE and Tau proteins were labeled with Pan-Tau antibodies (N-ter, C-ter). Catabolites detected with these antibodies are indicated as f-Nter and f-Cter. […]

Assay [2] has as its system Thy-Tau22 mice. The assay can be described thus: Immunohistochemical measurement of tau pathology (NFT burden) in hippocampal CA1. In kind it is in vivo, mouse. To be noted: Thy-Tau22, 0.5 mg/kg vs untreated, FIG. 5. From the text: Wild-type C57BL/6J animals of 3 months were purchased at Charles Rivers Laboratories (France) and were allow to acclimate in the animal facility for at least one week before any treatment. Thy-Tau22 transgenic colonies (C57BL/6J genetic background) were obtained by crossing heterozygous Thy-Tau22 males with C57BL/6 WT females. […] In this model, a progressive development of NFT is observed in the hippocampus and amygdala, which parallels behavioral impairments (Schindowski et al., 2006). Furthermorever, in the hippocampus, hyper- and abnormally phosphorylated Tau species accumulate within the somato-dendritic area (Schindowski et al., 2006). For animal treatment, animals were randomly distributed and the compound of Formula I was given in the drinking water at final concentration of 0.5 or 1 mg/kg. Drinking bottles were changed once per week, volume consumption was measured along the treatment period. Food consumption and body weight were assessed. […] Quantification of labeled neurons was achieved using the NIH-Image J software and expressed in arbitrary units (A.U). The burden of NFT in the hippocampal CA1 was investigated by immunohistochemistry and quantification. […]

Setting [3] is: ratio phospho-epitope/total hTau.

In the case of `CC(C)CN(CCCN1CCN(CCCNc2c3c(nc4ccccc24)CCCC3)CC1)CC(C)C.Cl` [Compound I⋅HCl, N-[3-(4-{3-[Bis(2-methylpropyl)amino]propyl}piperazin-1-yl)propyl]-1,2,3,4-tetrahydroacridin-9-amine hydrochloride], in assay [1], the “Tau C-terminal catabolites products at 43 kDa” value is given as “significantly increased”; the “Tau N-terminal catabolites” value was “significantly decreased”; the “Tau phosphorylation at other phospho-sites (pSer199, pSer262, pSer422, Tau-1)” value is “not significantly modified”. In assay [1] (setting [3]), the “Tau phosphorylation at phospho-site 396” value was “significant reduction” and the “Tau phosphorylation at phospho-site 404” value is recorded as “significant reduction”. Also, in assay [2], the AT8 immunostaining result is “no significant differences” and the “average surface of staining after AT100 staining” value is recorded as “significantly reduced”.
